According to PMC8364340 (Drug Design, Development and Therapy, 2021):

Test system: STZ-induced diabetic rats
Experiment: Blood glucose-lowering efficacy in STZ-induced diabetic rats
Type: in vivo
Settings: subcutaneous, 100 nmol/kg, mean ± SD, n=6

## Humulin R: Recombinant Human Insulin Injection (Humulin R, 3mL:300IU), Lilly France
glucometer, trapezoidal rule
  AUC for Glucose AUC0-24h: 10,990 ± 415.5 mg·h/dL
  AUC for Glucose AUC0-1h: 421 ± 20.4 mg·h/dL
  AUC for Glucose AUC0-2h: 724 ± 52.2 mg·h/dL
  AUC for Glucose AUC0-4h: 1328 ± 100.1 mg·h/dL
  AUC for Glucose AUC0-6h: 2156 ± 132.0 mg·h/dL
  AUC for Glucose AUC0-8h: 3092 ± 174.8 mg·h/dL
  AUC for Glucose AUC0-12h: 5070 ± 259.4 mg·h/dL
  AUC for Glucose AUC0-16h: 7146 ± 321.1 mg·h/dL
